Measurements: patent US9340493B2, “Hydroxamic acid derivatives useful as antibacterial agents” (Pfizer Inc., priority 2008, dated 2016)
Converted amounts (≈) assume the structure as drawn.

Experiments:
Klebsiella pneumoniae = experiment: MIC determination, K. pneumoniae; assay type: cell-based; conditions: ciprofloxacin-resistant, ESBL-expressing clinical isolate, * = arithmetic mean of 2-6 MIC determinations, read-out: MIC (ug/mL) K. pneumoniae
Protocol: (§1) MIC determinations: The in vitro antibacterial activity of compounds described in the Examples was evaluated by minimum inhibitory concentration (MIC) testing according to Clinical and Laboratory Standards Institute (CLSI, formerly NCCLS) guidelines. See: Clinical and Laboratory Standards Institute. Methods for Dilution Antimicrobial Susceptibility Tests for Bacteria that Grow Aerobically; Approved Standard-Seventh Edition. CLSI document M7-A7 [ISBN 1-56238-587-9]. Clinical and Laboratory Standards Institute, 940 West Valley Road, Suite 1400, Wayne, Pa. 19087-1898 USA, 2006; also Clinical and Laboratory Standards Institute. Performance Standards for Antimicrobial Susceptibility Testing; Eighteenth Informational Supplement. CLSI document M100-S18 [ISBN1-56238-653-0]. Clinical and Laboratory Standards Institute.
(§2) The following bacterial strains were used:
Klebsiella pneumoniae: Ciprofloxacin-resistant isolate, expresses extended-spectrum beta-lactamases (ESBL), clinical isolate;

P. aeruginosa PAO280 = experiment: MIC determination, P. aeruginosa PAO280; assay type: cell-based; conditions: Pseudomonas aeruginosa, PAO280, read-out: MIC (ug/mL) P. aeruginosa PAO280
Protocol: as §1, §2
Pseudomonas aeruginosa PA0280: lacks efflux pumps MexAB-oprM, MexXY and MexZ

[1] = test system: Acinetobacter baumanii/haemolyticus; experiment: MIC determination, A. baumanii/haemolyticus; assay type: cell-based; conditions: Acinetobacter baumannii; multidrug-resistant clinical isolate; * = arithmetic mean of 2-6 MIC determinations; read-out: MIC (ug/mL) A. baumanii/haemolyticus
Protocol: as §1, §2
Acinetobacter baumanii/haemolyticus: Multidrug-resistant clinical isolate;

P. aeruginosa UI-18 = experiment: MIC determination, P. aeruginosa UI-18; assay type: cell-based; conditions: Pseudomonas aeruginosa, UI18; wild-type; * = arithmetic mean of 2-6 MIC determinations; read-out: MIC (ug/mL) P. aeruginosa UI-18
Protocol: as §1, §2
P. aeruginosa UI-18: Wild-type;

[2] = target: T1, Pseudomonas aeruginosa LpxC enzyme (Pseudomonas aeruginosa, UniProt P47205); experiment: IC50 assay, LpxC enzyme from P. aeruginosa; assay type: biochemical; conditions: 0.5 nM enzyme, 25° C., pH 8.0, 20 min; ** = average of 2-8 assays
T1 construct: made in house; host or cells: E. coli
T1 sequence (P47205 1-303): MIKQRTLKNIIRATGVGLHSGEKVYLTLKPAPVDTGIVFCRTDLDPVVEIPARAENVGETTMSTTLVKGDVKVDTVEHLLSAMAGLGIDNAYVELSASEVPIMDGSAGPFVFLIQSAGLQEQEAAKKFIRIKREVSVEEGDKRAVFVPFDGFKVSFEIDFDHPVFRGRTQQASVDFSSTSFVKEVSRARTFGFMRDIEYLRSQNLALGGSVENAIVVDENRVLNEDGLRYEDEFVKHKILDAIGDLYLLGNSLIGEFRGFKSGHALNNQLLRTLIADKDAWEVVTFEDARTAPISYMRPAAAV
Protocol: IC50 assay, LpxC enzyme from P. aeruginosa: IC50 determination in the LpxC enzyme assay was carried out in a similar manner to that described by S. A. Hyland et al., J. Bacteriology 1997, 179, 2029-2037. [See also T. Kline et al., J. Medicinal Chemistry 2002, 45, 3112-3129.] Briefly, Pseudomonas aeruginosa LpxC enzyme (0.5 nM) purified from E. coli-overexpressing bacteria was incubated at 25° C. in a final volume of 25 ul containing 0.5 uM UDP-3-O—(R-3-hydroxydecanoyl)-N—[^3H-acetyl]glucosamine (B. D. Maxwell and J. C. Bronstein, J. Labeled Compounds and Radiopharmaceuticals 2005, 48, 1049-1054), 1 mg/ml BSA, and 50 mM sodium phosphate buffer, pH 8.0 in the presence and absence of inhibitor compound. At the end of 20 min, 90 ul of a pre-mixed 3% suspension of activated charcoal in 100 mM sodium acetate, pH 7.5, was added to stop the enzyme reaction. The contents of the well were transferred to a filter plate and filtered, and an aliquot of the filtrate was quantitated by liquid scintillation spectrometry. A no-enzyme control was subtracted in order to eliminate background counts.

Escherichia coli EC-1 = experiment: MIC determination, E. coli EC-1; assay type: cell-based; conditions: EC1, EC-1: VOGEL, * = arithmetic mean of 2-6 MIC determinations, read-out: MIC (ug/mL) E. coli EC-1
Protocol: as §1, §2
Escherichia coli EC-1: VOGEL;

[3] = test system: Staphylococcus aureus ATCC 29213; experiment: MIC determination, S. aureus ATCC 29213; assay type: cell-based; conditions: ATCC29213, CLSI quality control reference strain, * = arithmetic mean of 2-6 MIC determinations, read-out: MIC (ug/mL) S. aureus ATCC 29213
Protocol: as §1, §2
Staphylococcus aureus ATCC 29213: CLSI quality control reference strain; and […]

Enterobacter aerogenes = experiment: MIC determination, E. aerogenes; assay type: cell-based; conditions: Klebsiella aerogenes; quinolone-resistant, ESBL-expressing clinical isolate; * = arithmetic mean of 2-6 MIC determinations; read-out: MIC (ug/mL) E. aerogenes
Protocol: as §1, §2
Enterobacter aerogenes: Quinolone-resistant isolate, expresses extended-spectrum beta-lactamases (ESBL), clinical isolate;

Compound	MIC (Klebsiella pneumoniae)	MIC (P. aeruginosa PAO280)	MIC [1]	MIC (P. aeruginosa UI-18)	IC50 [2]	MIC (Escherichia coli EC-1)	MIC [3]	MIC (Enterobacter aerogenes)
C[C@@](OCc1ccc(-c2ccccc2)cc1)(C(=O)NO)[C@@H](O)c1ccon1 [Example 31, (2S,3S)-2-(biphenyl-4-ylmethoxy)-N,3-dihydroxy-3-isoxazol-3-yl-2-methylpropanamide]	48 µg/mL (≈ 130 µM)	0.06 µg/mL (≈ 0.163 µM)	32 µg/mL (≈ 86.9 µM)	6 µg/mL (≈ 16.3 µM)	0.000406 µM	16 µg/mL (≈ 43.4 µM)	> 64 µg/mL	> 64 µg/mL
CC(CO)(OCc1ccc(-c2ccc(-c3cc(CN4CCOCC4)no3)cc2)cc1)C(=O)NO (centres unmarked) [Example 55, N,3-dihydroxy-2-methyl-2-({4′-[3-(morpholin-4-ylmethyl)isoxazol-5-yl]biphenyl-4-yl}methoxy)propanamide]	> 64 µg/mL	0.5 µg/mL (≈ 1.07 µM)	> 64 µg/mL	32 µg/mL (≈ 68.4 µM)	0.00399 µM	> 64 µg/mL	> 64 µg/mL	> 64 µg/mL
Cc1nc([C@H](O)[C@](C)(OCc2ccc(-c3ccccc3)cc2)C(=O)NO)c(C)o1 [Example 27, (2S,3S)-2-(biphenyl-4-ylmethoxy)-3-(2,5-dimethyl-1,3-oxazol-4-yl)-N,3-dihydroxy-2-methylpropanamide]	> 64 µg/mL	16 µg/mL (≈ 40.4 µM)	> 64 µg/mL	> 64 µg/mL	0.0652 µM	> 64 µg/mL	> 64 µg/mL	> 64 µg/mL
Cc1cc([C@H](O)[C@](C)(OCc2ccc(-c3ccccc3)cc2)C(=O)NO)no1 [Example 23, (2S,3S)-2-(biphenyl-4-ylmethoxy)-N,3-dihydroxy-2-methyl-3-(5-methylisoxazol-3-yl)propanamide]	8 µg/mL (≈ 20.9 µM)	0.015 µg/mL (≈ 0.0392 µM)	4 µg/mL (≈ 10.5 µM)	1.75 µg/mL (≈ 4.58 µM)	0.000376 µM	4 µg/mL (≈ 10.5 µM)	> 64 µg/mL	27 µg/mL (≈ 70.6 µM)
CC(OCc1ccc(-c2ccccc2)cc1)(C(=O)NO)C(=O)NCc1cn2ccccc2n1 (centres unmarked) [Example 83, 2-(biphenyl-4-ylmethoxy)-N-hydroxy-N′-(imidazo[1,2-a]pyridin-2-ylmethyl)-2-methylmalonamide]	64 µg/mL (≈ 144 µM)	0.125 µg/mL (≈ 0.281 µM)	64 µg/mL (≈ 144 µM)	8 µg/mL (≈ 18 µM)	0.00218 µM	16 µg/mL (≈ 36 µM)	> 32 µg/mL	> 64 µg/mL
C[C@@](OCc1ccc(-c2ccccc2)cc1)(C(=O)NO)[C@@H](O)c1cc(-c2ccccc2)on1 [Example 28, (2S,3S)-2-(biphenyl-4-ylmethoxy)-N,3-dihydroxy-2-methyl-3-(5-phenylisoxazol-3-yl)propanamide]	> 16 µg/mL	4 µg/mL (≈ 9 µM)	8 µg/mL (≈ 18 µM)	8 µg/mL (≈ 18 µM)	0.00143 µM	8 µg/mL (≈ 18 µM)	16 µg/mL (≈ 36 µM)	> 16 µg/mL
Cn1nncc1[C@H](O)[C@](C)(OCc1ccc(-c2ccccc2)cc1)C(=O)NO [Example 19, (2S,3S)-2-(biphenyl-4-ylmethoxy)-N,3-dihydroxy-2-methyl-3-(1-methyl-1H-1,2,3-triazol-5-yl)propanamide]	> 64 µg/mL	2 µg/mL (≈ 5.23 µM)	> 64 µg/mL	> 64 µg/mL	0.00256 µM	> 64 µg/mL	> 64 µg/mL	> 64 µg/mL
Cc1ccnc(-c2ccc(COC(C)(C(=O)NO)C(=O)NCc3cc(C)on3)cc2)c1 (centres unmarked) [Example 87, N-hydroxy-2-methyl-N′-[(5-methylisoxazol-3-yl)methyl]-2-{[4-(4-methylpyridin-2-yl)benzyl]oxy}malonamide]	> 64 µg/mL	0.25 µg/mL (≈ 0.589 µM)	> 64 µg/mL	32 µg/mL (≈ 75.4 µM)	0.0023 µM	> 64 µg/mL	> 64 µg/mL	> 64 µg/mL
Cc1cc(CNC(=O)C(C)(OCc2ccc(-c3ccc(F)cn3)cc2)C(=O)NO)no1 (centres unmarked) [Example 88, 2-{[4-(5-fluoropyridin-2-yl)benzyl]oxy}-N-hydroxy-2-methyl-N′-[(5-methylisoxazol-3-yl)methyl]malonamide]	> 64 µg/mL	0.5 µg/mL (≈ 1.17 µM)	> 64 µg/mL	64 µg/mL (≈ 149 µM)	0.00698 µM	> 64 µg/mL	> 64 µg/mL	> 64 µg/mL
COCc1cc(CNC(=O)C(C)(OCc2ccc(-c3ccccc3)cc2)C(=O)NO)no1 (centres unmarked) [Example 85, 2-(biphenyl-4-ylmethoxy)-N-hydroxy-N′-{[5-(methoxymethyl)isoxazol-3-yl]methyl}-2-methylmalonamide]	32 µg/mL (≈ 72.8 µM)	0.125 µg/mL (≈ 0.284 µM)	64 µg/mL (≈ 146 µM)	8 µg/mL (≈ 18.2 µM)	0.00159 µM	16 µg/mL (≈ 36.4 µM)	64 µg/mL (≈ 146 µM)	> 64 µg/mL
C[C@@](OCc1ccc(-c2ccc(C(F)(F)F)cc2)cc1)(C(=O)NO)[C@@H](O)c1cc(CO)on1 [Example 42, (2S,3S)-N,3-dihydroxy-3-[5-(hydroxymethyl)isoxazol-3-yl]-2-methyl-2-{[4′-(trifluoromethyl)biphenyl-4-yl]methoxy}propanamide]	> 32 µg/mL	< 0.06 µg/mL	32 µg/mL (≈ 68.6 µM)	2 µg/mL (≈ 4.29 µM)	0.000372 µM	16 µg/mL (≈ 34.3 µM)	> 32 µg/mL	> 32 µg/mL
CNC(=O)C(C)(OCc1ccc(-c2ccccc2)cc1)C(=O)NO (centres unmarked) [Example 93, 2-(biphenyl-4-ylmethoxy)-N-hydroxy-N′,2-dimethylmalonamide]	64 µg/mL (≈ 195 µM)	0.125 µg/mL (≈ 0.381 µM)	> 64 µg/mL	8 µg/mL (≈ 24.4 µM)	–	32 µg/mL (≈ 97.5 µM)	> 64 µg/mL	> 64 µg/mL
